In one experiment the test system is CAR-T cell population. Kind of experiment: Whole blood loop assay: flow cytometry of CAR-T cell population (CAR marker, CD69, CD107a, viability). In kind it is cell-based, human. As for the experimental part:
Peripheral blood mononuclear cells (PBMCs) were isolated from healthy donors using Lymphoprep (Progen), stored in −70° C. in freezing medium (10% dimethyl sulfoxide (DMSO), 90% fetal calf serum (FCS)) and cultured in RPMI-1640 supplemented with 10% FCS and 1% penicillin/streptomycin. The PBMCs were activated with 1 μg/ml OKT-3 (Biolegend) and 200 IU/ml IL-2 (Roche) for 1 day to selectively stimulate T cells. Retronectin plates (Takara) were prepare in advance (7 μg per well, overnight at 4° C.) and incubated twice with 500 μl concentrated CD19-CAR-encoding retrovirus (2G) or Mock retrovirus, previously described in Karlsson et al., Evaluation of Intracellular Signaling Downstream Chimeric Antigen Receptors, PLOS ONE 2015, 10(12):e0144787, for 30 min at 37° C. Activated cells were transduced with 3 ml concentrated CD19-CAR-encoding retrovirus or Mock retorvirus for 2 days at 37° C. in the presence of retronectin-coated plates and 100 IU IL-2. Cells were cultured with 100 IU/ml IL-2 and expanded for 2 weeks before analysis. For analysis of CD19-CAR expression, cells were stained with 0.5 μl of anti-CAR-Dylight649 (Jackson ImmunoResearch), washed with phosphate-buffered saline (PBS) and followed by surface labeling (CD3, CD8, CD4, TF). Flow cytometry analysis was performed using Cytoflex (Beckman Coulter). Cell count and cell viability was determined using trypan blue (T-20 Counter, Bio-Rad).
(§1) Blood from healthy donors was taken in an open system and immediately mixed with test compounds (CD19-CAR T cells and dextran sulfate (Tikomed AB, Sweden, WO 2016/076780, referred to as IBsolvMIR in the figures). Autologous setting included CAR-T cells generated from the same donor that donated whole blood. In allogeneic setting, blood and CAR-T cells were not matched (from different donors). All materials in direct contact with whole blood were surface heparinized in accordance with the manufacturers protocol (Corline, Sweden). Whole blood (2 ml) was added to PVC-tubing, which, with a surface heparinized metal connector, formed a loop. The dextran sulfate (0.2 g/L) and CAR-T cells (0.5-5×10^6 cells) were added according to Table 1, and the loops were set to rotate on a wheel at 37° C. Blood aliquots were sampled, andeEthylenediaminetetraacetic acid (EDTA) was added to a final concentration of 10 mM to stop reactions at a given time-point. […]
(§2) The plasma samples were kept on ice, and plasma was collected by centrifugation at 2000×g at 4° C. for 20 minutes. […] Antibody master mix was incubated with whole blood for 30 min at 4° C., washed with PBS and analyzed using Cytoflex (Beckman Coulter).
On the technique in general: In flow cytometry, cells or beads pass a laser one at a time.

The test system of another experiment is monocyte population. Kind of experiment: Whole blood loop assay: CD11b on monocytes by flow cytometry. It is filed as cell-based, human. The following applies: addition of dextran sulfate to loops; FIG. 9A.
Source text: as §1, §2

A further experiment has as its system granulocyte population. Kind of experiment: Whole blood loop assay: CD11b on granulocytes by flow cytometry. It is filed as cell-based, human. The following applies: addition of dextran sulfate to loops; FIG. 9B.
Source text: as §1, §2

In experiment [1] the test system is T cell population (CD3+, CD4+, CD8+ T cells). Kind of experiment: Whole blood loop assay: flow cytometry of blood donor T cells (activation markers, viability). In kind it is cell-based, human. Conditions: groups with and without dextran sulfate; 60 min; FIGS. 3A to 3I.
Source text: as §1, §2

For a further experiment, the system named is C3a. The experiment in a line: Complement analysis (C3a) ELISA on plasma from whole blood loops. Set-up: species or system human. The following applies: data not shown. As for the experimental part:
The plasma samples were kept on ice, and plasma was collected by centrifugation at 2000×g at 4° C. for 20 minutes. The plasma was stored at −70° C. until the time of analysis. Complement analysis (C3a) was performed on plasma collected at various time points after assay start with ELISA kits from RayBiotech according to the manufacturers instructions. For experiments involving flow cytometry, blood samples were mixed with EDTA (final concentration of 10 mM), followed by the Fc block (BD Biosciences) and antibody master mix containing anti-human fluorochrome-labeled antibodies for surface staining (CD3, CD4, CD8, CD20, CD56, CD16, CD66b, CD14, BioLegend), including activation markers (CD107a, CD69, CD11b, Biolegend). Antibody master mix was incubated with whole blood for 30 min at 4° C., washed with PBS and analyzed using Cytoflex (Beckman Coulter).

The test system of experiment [2] is B cell population (CD19+). Kind of experiment: Whole blood loop assay: flow cytometry of B cells (count, CD69, CD107a). In kind it is cell-based, human.
Source text: as §1, §2

Another experiment concerns whole blood. Kind of experiment: Human whole blood loop assay: ACT kaolin time and prothrombin/INR time (i-STAT cartridges). Conditions: for Activated clotting time (ACT) / Prothrombin time (PT) / international normalized ration (INR): dextran sulfate 0.2 mg/ml, no CAR-T cells. As to the method:
The objective of this Example was to investigate dextran sulfate in a human whole blood loop assay in combination with CAR-T cells. Cellular activation and viability and blood status was assessed after incubation in the human whole loop system with dextran sulfate with and without CAR-T cells.
Blood from healthy donors was taken in an open system and immediately mixed with test compounds (CD19-CAR T cells and dextran sulfate (Tikomed AB, Sweden, WO 2016/076780, referred to as IBsolvMIR in the figures). Autologous setting included CAR-T cells generated from the same donor that donated whole blood. In allogeneic setting, blood and CAR-T cells were not matched (from different donors). All materials in direct contact with whole blood were surface heparinized in accordance with the manufacturers protocol (Corline, Sweden). Whole blood (2 ml) was added to PVC-tubing, which, with a surface heparinized metal connector, formed a loop. The dextran sulfate (0.2 g/L) and CAR-T cells (0.5-5×10^6 cells) were added according to Table 1, and the loops were set to rotate on a wheel at 37° C. Blood aliquots were sampled, andeEthylenediaminetetraacetic acid (EDTA) was added to a final concentration of 10 mM to stop reactions at a given time-point. The automated hematology analyzer XP-300 or XN-350 (Sysmex) was used to assess blood cell count at different time points, while i-STAT cartridges (Abbott) were used to measure ACT kaolin time and prothrombin/INR time measurements.

Setting [3] is: allogenic donor, time point 60 min.
Setting [4] is: autologous donor, time point 10 min.
Where [5] appears, read: autologous donor, time point 60 min.

In the case of dextran sulfate, the “percentage of cells positive for the CAR-T cell specific marker in the T cell population” value in the experiment on CAR-T cell population (allogenic donor, FIG. 4A) is “increased”. Besides, in the experiment with CAR-T cell population (autologous donor, without or with dextran sulfate, FIG. 5C), the “viability of the CAR-T cells” value is approximately 60%. Moreover, the “proportion of CD3+ CAR-T cells and CD8+ CAR-T cells, autologous versus allogenic groups” value in the experiment with CAR-T cell population (when dextran sulfate was added) was “more similar”. In addition, the “levels of activation markers (CD69, CD107a) in the allogenic CAR-T cell groups” value in the experiment on CAR-T cell population (with dextran sulfate, compared with autologous CAR-T cell groups, FIGS. 5A, 5B and 6) is “more similar to the levels of activation markers in the autologous CAR-T cell groups”. Moreover, in the experiment with monocyte population, the “expression of activation marker CD11 b on monocytes” value is listed as “decreased”. The “expression of activation marker CD11 b on granulocytes” value in the experiment with granulocyte population is listed as “decreased”. Moreover, in experiment [1], the “viability and activation of T cell population (blood donors CD3+, CD4+, CD8+ T cells)” value was “similar”. Also, the C3a levels result in the experiment with C3a (in co-administration with CAR-T cells) is recorded as “decreased levels of C3a”; with C3a (substance added alone, both donors), “decreased levels of C3a”. Also, the “impact on CAR functionality” value in experiment [2] (from B cell count and activation pattern) is on record as “did not have any negative impact”. The “B cell count and activation pattern” value in experiment [2] (samples with or without dextran sulfate) is “similar”. The “coagulation measurements (ACT, PTT, INR)” value in the experiment with whole blood (Table 2 and Table 3, autologous and allogenic donor) is “rise in all coagulation measurements”. For the same substance, the results for the Activated clotting time (ACT) with whole blood (setting [3]) and with whole blood (setting [4]) were 356 s and 485 s, respectively. Besides, the Prothrombin time (PT) with whole blood (setting [3]) was 30.7 s; with whole blood (setting [4]), 16.5 s; in the experiment with whole blood (setting [5]), 17.9 s. Moreover, the “international normalized ration (INR)” value was 2.7 with whole blood (setting [3]), 1.4 in the experiment on whole blood (setting [4]) and 1.5 with whole blood (setting [5]).

The values are drawn from patent US20220267728A1, “ALLOGENIC CAR-T CELL THERAPY” (TX MEDIC AB, priority 2019, published 2022).
